According to the supplement of paper PMC11061612:

Columns and labels:
[1] = compound: CC(C)n1c(=O)n(C)c2cnc3cc(F)c(-c4ccc(OCCCN5CCCCC5)nc4)cc3c21 [AZD1390]; settings: max 0.3 µM
Method in brief: (§1)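 Cancer cell lines were seeded into 1536-well plates in 7.5 μl medium (DMEM/F12 or RPMI, 10% FBS), held 24 hours at 37°C and 5% CO2, and dosed for 72 hours with final DMSO typically 0.2%. Luminescence from CellTiter-Glo 2.0, scaled between blank-well and DMSO-well means, served as viability. The single-agent IC50 was obtained from dose-response fits with a non-linear mixed effects model, each fit being a two-parameter logistic curve.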

[2] = compound: CC(=O)c1c(C)c2cnc(Nc3ccc(N4CCNCC4)cn3)nc2n(C2CCCC2)c1=O [Palbociclib]; settings: max 10 µM
Method in brief: as §1

[3] = compound: CC1=C(C(=CC=C1)Cl)NC(=O)C2=CN=C(S2)NC3=CC(=NC(=N3)C)N4CCN(CC4)CCO [Dasatinib]; settings: max 2 µM
Method in brief: as §1

[4] = compound: CS(=O)(=O)CCNCc1ccc(-c2ccc3ncnc(Nc4ccc(OCc5cccc(F)c5)c(Cl)c4)c3c2)o1 [Lapatinib]; settings: max 10 µM
Method in brief: as §1

[5] = compound: COc1cccc(OCCCN)c1-c1cc(Nc2cnc(C#N)cn2)n[nH]1 [Prexasertib]; settings: max 1 µM
Method in brief: as §1

[6] = compound: C1CN(CCC1(C(=O)N[C@@H](CCO)C2=CC=C(C=C2)Cl)N)C3=NC=NC4=C3C=CN4 [Capivasertib]
Method in brief: as §1

[7] = compound: CN(C)CCCOc1ccc(-c2ccc3ncc4c(c3c2)n(C2CCOCC2)c(=O)n4C)cn1 [AZD0156]; settings: max 3 µM
Method in brief: as §1

[8] = compound: COc1cccc2c1C(=O)c1c(O)c3c(c(O)c1C2=O)C[C@@](O)(C(=O)CO)C[C@@H]3O[C@H]1C[C@H](N)[C@H](O)[C@H](C)O1 [Doxorubicin]; settings: max 1 µM
Method in brief: as §1

[9] = compound: C[C@@H](c1ccc2nccn2c1)n1nnc2ncc(-c3cnn(C)c3)nc21 [Savolitinib]; settings: max 1 µM
Method in brief: as §1

[10] = compound: CCc1c2c(nc3ccc(O)cc13)-c1cc3c(c(=O)n1C2)COC(=O)[C@]3(O)CC [SN-38]; settings: max 0.3 µM
Method in brief: as §1

[11] = compound: Cc1nc(-c2cn3c(n2)-c2ccc(-c4cnn(C(C)(C)C(N)=O)c4)cc2OCC3)n(C(C)C)n1 [Taselisib]; settings: max 10 µM
Method in brief: as §1

[12] = compound: CN(CC[C@H](CSC1=CC=CC=C1)NC2=C(C=C(C=C2)S(=O)(=O)NC(=O)C3=CC=C(C=C3)N4CCC(CC4)[C@H](C5=CC=CC=C5C6=CC=C(C=C6)Cl)O)S(=O)(=O)C(F)(F)F)CCO [AZD4320]; settings: max 1 µM
Method in brief: as §1

[13] = compound: CC(=O)Nc1cccc(-n2c(=O)n(C3CC3)c(=O)c3c(Nc4ccc(I)cc4F)n(C)c(=O)c(C)c32)c1 [Trametinib]; settings: max 1 µM
Method in brief: as §1

[14] = compound: C[C@@H](Nc1cc(F)cc(F)c1)c1cc(C(=O)N(C)C)cc2c(=O)cc(N3CCOCC3)oc12 [AZD8186]; settings: max 3 µM
Method in brief: as §1

[15] = compound: C=CCn1c(=O)c2cnc(Nc3ccc(N4CCN(C)CC4)cc3)nc2n1-c1cccc(C(C)(C)O)n1 [AZD1775]; settings: max 3 µM
Method in brief: as §1

[16] = compound: COc1cc2ncnc(Nc3ccc(F)c(Cl)c3)c2cc1OCCCN1CCOCC1 [Gefitinib]; settings: max 10 µM
Method in brief: as §1

[17] = compound: O=C(c1cc(Cc2n[nH]c(=O)c3ccccc23)ccc1F)N1CCN(C(=O)C2CC2)CC1 [Olaparib]; settings: max 10 µM
Method in brief: as §1

[18] = compound: COc1nnc2ccc(N3CCC(c4ccc(OCCN5CCN(C)C(=O)[C@H]5C)cc4)CC3)nn12 [AZD5153]; settings: max 1 µM
Method in brief: as §1

[19] = compound: C[C@@H](Oc1cc(-c2cnn(C3CCNCC3)c2)cnc1N)c1c(Cl)ccc(F)c1Cl [Crizotinib]; settings: max 10 µM
Method in brief: as §1

[20] = compound: C[C@@H]1COCCN1C2=NC(=NC(=C2)C3(CC3)[S@](=N)(=O)C)C4=C5C=CNC5=NC=C4 [AZD6738]; settings: max 10 µM
Method in brief: as §1

[21] = compound: Cn1cnc2c(F)c(Nc3ccc(Br)cc3Cl)c(C(=O)NOCCO)cc21 [Selumetinib]
Method in brief: as §1

[22] = compound: COc1cc(Nc2ncc3c(n2)-c2ccc(Cl)cc2C(c2c(F)cccc2OC)=NC3)ccc1C(=O)O [Alisertib]; settings: max 10 µM
Method in brief: as §1

[23] = compound: CCN(CCO)CCCOc1ccc2c(Nc3cc(CC(=O)Nc4cccc(F)c4)[nH]n3)ncnc2c1 [AZD2811]; settings: max 1 µM
Method in brief: as §1

[24] = compound: Cc1cc2ncnn2cc1Nc1ncc2c(n1)n(C1CCOCC1)c(=O)n2C [AZD7648]; settings: max 10 µM
Method in brief: as §1

[25] = compound: Cc1c2c(nn1C)CSCc1cc(n(C)n1)CSc1cc(c3ccccc3c1)OCCCc1c(C(=O)O)n(C)c3c-2c(Cl)ccc13 [AZD5991]; settings: max 1 µM
Method in brief: as §1

[26] = compound: CC1(C)CCC(CN2CCN(c3ccc(C(=O)NS(=O)(=O)c4ccc(NCC5CCOCC5)c([N+](=O)[O-])c4)c(Oc4cnc5[nH]ccc5c4)c3)CC2)=C(c2ccc(Cl)cc2)C1 [Venetoclax]; settings: max 1 µM
Method in brief: as §1

[27] = compound: CC1=CN2[C@@H](C1)C=NC3=CC(=C(C=C3C2=O)OC)OCCCCCOC4=C(C=C5C(=C4)N=C[C@@H]6CC(=CN6C5=O)C)OC [SG3199]; settings: max 0.001 µM
Method in brief: as §1

Row | Cell Line | IC50, cell viability 72 h [1] | IC50, cell viability 72 h [2] | IC50, cell viability 72 h [3] | IC50, cell viability 72 h [4] | IC50, cell viability 72 h [5] | IC50, cell viability 72 h ([6]; max 10 µM) | IC50, cell viability 72 h [7] | IC50, cell viability 72 h [8] | IC50, cell viability 72 h [9] | IC50, cell viability 72 h [10] | IC50, cell viability 72 h [11] | IC50, cell viability 72 h [12] | IC50, cell viability 72 h [13] | IC50, cell viability 72 h [14] | IC50, cell viability 72 h [15] | IC50, cell viability 72 h [16] | IC50, cell viability 72 h [17] | IC50, cell viability 72 h [18] | IC50, cell viability 72 h [19] | IC50, cell viability 72 h [20] | IC50, cell viability 72 h ([21]; max 10 µM) | IC50, cell viability 72 h [22] | IC50, cell viability 72 h [23] | IC50, cell viability 72 h [24] | IC50, cell viability 72 h [25] | IC50, cell viability 72 h [26] | IC50, cell viability 72 h [27] | IC50, cell viability 72 h ([6]; max 3 µM) | IC50, cell viability 72 h ([21]; max 3 µM)
1 | C-4-I (Cervical Carcinoma) | > 300 nM | > 10 µM | > 2000 nM | 7.23 µM | 18.5 nM | > 10 µM | > 3000 nM | 302 nM | > 1000 nM | 41 nM | 2550 nM | > 1000 nM | 773 nM | > 3000 nM | 195 nM | > 10 µM | > 10 µM | 889 nM | > 10 µM | 2.52 µM | > 10 µM | 3.42 µM | > 1000 nM | > 10 µM | 288 nM | > 1000 nM | > 1 nM | – | –
2 | HOP-62 (Lung Adenocarcinoma) | > 300 nM | > 10 µM | 956 nM | > 10 µM | 225 nM | > 10 µM | > 3000 nM | > 1000 nM | > 1000 nM | 101 nM | > 10000 nM | > 1000 nM | 200 nM | > 3000 nM | > 3000 nM | > 10 µM | > 10 µM | 243 nM | > 10 µM | > 10 µM | 8.92 µM | 8.66 µM | > 1000 nM | > 10 µM | > 1000 nM | > 1000 nM | > 1 nM | – | –
3 | JVM-3 (B-Cell Non-Hodgkin's Lymphoma) | – | – | – | – | 7.34 nM | – | > 3000 nM | 84.3 nM | – | 2.05 nM | 1610 nM | 80.9 nM | 270 nM | > 3000 nM | 117 nM | – | > 10 µM | – | – | 4.32 µM | – | 1.6 µM | > 1000 nM | > 10 µM | > 1000 nM | > 1000 nM | > 1 nM | > 3 µM | 1.98 µM
4 | KMOE-2 (Acute Myeloid Leukemia) | > 300 nM | > 10 µM | > 2000 nM | > 10 µM | 55.8 nM | > 10 µM | > 3000 nM | 881 nM | > 1000 nM | 40 nM | 9870 nM | 409 nM | 1.74 nM | > 3000 nM | 411 nM | > 10 µM | > 10 µM | 102 nM | > 10 µM | 8.12 µM | 0.104 µM | 0.465 µM | > 1000 nM | > 10 µM | 773 nM | > 1000 nM | > 1 nM | – | –
5 | NCI-H1915 (Non-Small Cell Lung Carcinoma) | > 300 nM | > 10 µM | 567 nM | > 10 µM | 335 nM | > 10 µM | > 3000 nM | > 1000 nM | > 1000 nM | 61.6 nM | > 10000 nM | > 1000 nM | 34.7 nM | > 3000 nM | 2870 nM | > 10 µM | > 10 µM | > 1000 nM | > 10 µM | > 10 µM | 3.91 µM | 5.15 µM | > 1000 nM | > 10 µM | > 1000 nM | > 1000 nM | > 1 nM | – | –
6 | NEC8 (Other Solid Carcinomas) | > 300 nM | > 10 µM | > 2000 nM | > 10 µM | 35.7 nM | > 10 µM | > 3000 nM | 595 nM | > 1000 nM | 21.5 nM | > 10000 nM | > 1000 nM | > 1000 nM | > 3000 nM | 558 nM | > 10 µM | > 10 µM | 226 nM | > 10 µM | 5.76 µM | > 10 µM | > 10 µM | > 1000 nM | > 10 µM | > 1000 nM | > 1000 nM | > 1 nM | – | –
7 | OE19 (Esophageal Adenocarcinoma) | > 300 nM | > 10 µM | > 2000 nM | 0.287 µM | 105 nM | > 10 µM | > 3000 nM | > 1000 nM | > 1000 nM | > 300 nM | 2180 nM | > 1000 nM | > 1000 nM | > 3000 nM | > 3000 nM | 1.36 µM | > 10 µM | 907 nM | 3.81 µM | 4.05 µM | > 10 µM | 0.167 µM | 390 nM | > 10 µM | > 1000 nM | > 1000 nM | > 1 nM | – | –
